In patent US5428031A, “Methods of treating cardiac arrhythmia” (priority 1993, dated 1995):

Key:
[1] = target: T1, IKr (rapidly activating delayed rectifier K+ current) (Cavia porcellus, UniProt O08703); test: voltage clamp measurement of IKr block in isolated guinea pig ventricular myocytes; format: cell-based
T1 construct: Guinea pig ventricular myocytes were isolated; endogenous in cells; host or cells: isolated guinea pig ventricular myocytes
T1 sequence (O08703 1-1294): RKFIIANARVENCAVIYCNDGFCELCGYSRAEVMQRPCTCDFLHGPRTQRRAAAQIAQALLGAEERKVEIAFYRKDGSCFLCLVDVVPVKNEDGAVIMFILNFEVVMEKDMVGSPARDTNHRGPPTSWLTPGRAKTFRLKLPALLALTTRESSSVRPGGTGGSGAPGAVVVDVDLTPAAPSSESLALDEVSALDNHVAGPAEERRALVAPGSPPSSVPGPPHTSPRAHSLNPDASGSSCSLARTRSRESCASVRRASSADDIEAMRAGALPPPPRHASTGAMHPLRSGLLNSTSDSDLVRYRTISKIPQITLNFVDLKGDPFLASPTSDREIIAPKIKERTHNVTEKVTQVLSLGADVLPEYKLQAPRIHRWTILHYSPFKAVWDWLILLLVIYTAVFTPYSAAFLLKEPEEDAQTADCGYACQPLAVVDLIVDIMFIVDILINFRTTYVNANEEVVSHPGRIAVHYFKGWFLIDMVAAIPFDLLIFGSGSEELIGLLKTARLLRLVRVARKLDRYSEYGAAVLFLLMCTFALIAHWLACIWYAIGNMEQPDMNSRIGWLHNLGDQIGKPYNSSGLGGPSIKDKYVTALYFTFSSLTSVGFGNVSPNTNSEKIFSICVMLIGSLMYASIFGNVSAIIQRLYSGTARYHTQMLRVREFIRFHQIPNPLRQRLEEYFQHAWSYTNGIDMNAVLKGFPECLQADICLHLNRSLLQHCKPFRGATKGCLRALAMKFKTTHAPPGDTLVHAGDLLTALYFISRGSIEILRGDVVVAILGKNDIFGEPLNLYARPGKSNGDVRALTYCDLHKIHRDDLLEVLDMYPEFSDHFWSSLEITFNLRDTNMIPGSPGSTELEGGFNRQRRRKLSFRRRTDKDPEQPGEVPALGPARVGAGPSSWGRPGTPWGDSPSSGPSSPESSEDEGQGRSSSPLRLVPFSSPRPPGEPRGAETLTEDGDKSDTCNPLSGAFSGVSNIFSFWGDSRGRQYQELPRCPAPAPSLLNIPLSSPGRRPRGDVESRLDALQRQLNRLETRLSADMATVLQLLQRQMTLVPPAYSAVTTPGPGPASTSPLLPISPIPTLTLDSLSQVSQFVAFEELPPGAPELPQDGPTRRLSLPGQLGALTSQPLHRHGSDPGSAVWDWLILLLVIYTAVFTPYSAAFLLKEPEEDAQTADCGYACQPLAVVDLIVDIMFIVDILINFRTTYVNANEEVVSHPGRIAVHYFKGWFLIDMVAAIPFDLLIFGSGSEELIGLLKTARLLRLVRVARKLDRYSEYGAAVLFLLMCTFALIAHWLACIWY
Method: Guinea pig ventricular myocytes were isolated using a modification of the procedure described by Mitra R and Morad M., "A Uniform Enzymatic Method for Dissociation of Myocytes from Hearts and Stomachs of Nertilorates", Am. J. Physiol. […] Excised hearts were perfused through the aorta (retrograde fashion) at a rate of 10 ml/min with oxygenated, warmed (37° C.) solutions described below. […] The head was then perfused with the same nominally Ca^2+ -free solution containing 150 units/ml Type II collagenase (Worthington) and 0.5 units/ml Type XIV protease (Sigma) for 8 minutes. This perfusate was followed by a Tyrode's solution containing 0.2 mM CaCl2 (without enzymes) for 5 minutes. The digested ventricles were cut into small pieces and gently shaken until cells were visibly dispersed. The cells were stored at room temperature until use, within 8 hours after isolation.
The suction microelectrode technique described by Giles, W. R. and Shibata, E. F., "Voltage clamp of bull-frog cardiac pacemaker cells: a quantitative, analysis of potassium currents". J. Physiol. […] Microelectrodes were made by using a two stage puller from square bore (1.0 mm o.d.) borosilicate capillary tubing. […] After establishing whole-cell recording mode, negative pressure was maintained on the pipette using a 1 ml gas-tight syringe attached via air tight tubing to the suction port of the microelectrode holder. This minimized dialysis of the cell with the pipette solution.
To record K^+ currents, the cells were bathed in a Ca^2+ -free Tyrode's :solution containing […] nisoldipine. […] A List EPC-7 clamp amplifier was used to voltage clamp the isolated cells. […] A variety of voltage pulse protocols were used to measure Ca^2+ current and three types of K^+ currents: inward rectifier (IK1), rapidly activating delayed rectifier (IKr) and the slowly activating delayed rectifier (IKs). Sanguinetti M. C. and Jurkiewicz, N. K., "Two components of cardiac delayed rectifier K^+ current: Differential sensitivity to block by Class III antiarrhythmic agents". […] Data was analyzed as % block from control membrane currents.
Nisoldipins was prepared as a 4 mM stock solution in polyethylne glycol 200. Compounds tested in this series were prepared as 10 mM stock solutions in polyethylene glycol 400 or dimethyl sulfoxide.

[2] = tested on: conscious dogs; test: electrocardiographic QT interval in conscious dogs, oral; format: in vivo, dog
Method: Trained, female mongrel dogs, in the weight range of 8 to 16 kg and instruimented with chronic arterial access ports, were deprived of food 18 to 24 hours prior to the study. At test time, the dog was placed in an Alice King Chatham nylon mesh sling for light restraint. Four Grass Instrument Co. Type E2 Platinum Subdermal Electrodes were affixed to the limbs of the dog and connected to a Hewlett-Packard 4700A Cardiograph multi-lead electrocardiogram (ECG) recorder. After approximately a 30-minute stabilization period, one or two pretreatment Lead II ECG tracings were taken over approximately a 30-second interval. Dogs were then dosed via gavage with labrafil (vehicle) or test compound. The volume, administered was 2.0 ml/kg followed by a 15 ml tap-water flush. Lead II ECG recordings were obtained at 15, 30, and 60 minutes and every 30 minutes thereafter for five hours post-drug administration. Dogs were also monitored for blood pressure changes via a Modular Instruments data acquisition system and transducer connected to the arterial access port. Final ECG traces were taken at approximately 24 hours post-treatment. Average QT interval lengths were determined for each time point and QTc values were calculated to correct for variations in heart rate (QTc =QT/√R-R).

In the case of `Cc1cccc(NC(=O)N[C@@H]2N=C(c3ccccc3)c3ccccc3N(C)C2=O)c1` [Compound 4, (R)-N-(2,3-dihydro-1-methyl-2-oxo-5-phenyl-1H-1,4-benzodiazepin-3-yl)-N'-(3-methylphenyl)urea], the IC50 [1] is reported as about 5 µM, the “effect on IKr” value ([1]; 1 μM) is reported as “Little or no effect” and the “other ECG or cardiovascular effects” value [2] is reported as “no other ECG or cardiovascular effects”. For the same compound, the “prolongation of ECG QT interval” value [2] was “dose-related prolongation of ECG QT interval”.
